From US20050059615A1, “Transmucosal dosage forms for brain-targeted steroid chemical delivery systems” (priority 2003, published 2005)
Like-named read-outs stand apart in the source and are kept apart here.

What was measured:
[1] = system: ovariectomized female rats; test: Lordosis quotient, female rat sexual behavior after ovariectomy; format: in vivo, Sprague Dawley rats
Method: Adult female Sprague Dawley rats (220-250 g) from Charles River Hungary Ltd., Godollo, Hungary, were used. Animals were kept in community cages (4 animals/cage) in a climate-controlled room (23∀2EC, 50-60% humidity), with a 14 hour light, 10 hour dark cycle of artificial lighting, using reversed light/dark cycle. Food and water were available ad libitum.
After a minimum five-day acclimatization period, animals were ovariectomized under ether anesthesia, then were left to recover for 3 weeks before testing (reconvalescence). All animals were treated in accordance with the guidelines of the European Communities Council Directive (86/609/EEC) and studies were permitted by the Institutional Animal Care Commission.
Estradiol benzoate and progesterone were obtained from Sigma Chemical Co. Inc., Budapest, Hungary. 2-Hydroxypropyl-β-cyclodextrin was purchased from Cerestar Inc., Hammond, Ind., US. […] E2-CDS as a 3% complex with HPβCD (E2-CDS-CD) was dissolved in distilled water and diluted with 27% HPβCD solution. E2-CDS-CD was synthesized by Alchem Laboratories Corporation, Alachua, Fla., US, using the procedure of Example 2 above.
(§1) After recovery from surgery, ovariectomized female rats were divided into four groups and treated once a day for five days intravenously, via a bolus injection through the tail vein, as follows: (1) control, 27% HPβCD solution; (2) 0.003 mg/kg E2-CDS dissolved in 27% HPβCD solution; (3) 0.01 mg/kg E2-CDS dissolved in 27% HPβCD solution; and (4) 0.03 mg/kg E2-CDS dissolved in 27% HPβCD solution. A minimal number of ovariectomized (8 to 12) females were used per group. Intravenous treatments either with E2-CDS or HPβCD (controls) were carried out daily for 5 days beginning 2 days prior to the first day of behavior observations, in a volume of 0.05 mL/100 g body weight.
The behavior test was conducted in a plexiglass observation cage during the dark cycle. During behavioral observations, only a dim red light was on.
(§2) An experienced and active male rat was placed in the arena 5 minutes prior to the female. […] The lordosis quotient (LQ) expresses the estrogen effect on sexual receptivity and was calculated as follows: LQ=100×number of lordoses/10 mounts The observation of the sexual behavior of each female was carried out, in the case of E2-CDS, every day for 22 days; in the case of EB, investigations were carried out every day for 10 days. […] Citrated blood samples were taken by retro-orbital sinus puncture under light ether anesthesia. The samples were stored at 4EC for one hour, then centrifuged at 1000 g for 10 minutes. Plasma was separated and stored at −80EC until assayed. Plasma LH concentrations from individual samples were measured by double antibody radioimmunoassay kits obtained from Amersham Pharmacia Biotech, Rome, Italy. […] The limit of detection was 15 pg/mL.
(§3) Behavioral changes were analyzed using the Mann-Whitney U test (Siegel, Nonparametric Statistics for the Behavioral Sciences, New York; McGraw-Hill Book Company, Inc., 1956). The Fisher exact test was used for percentage comparisons (Zar, Biostatistical Analysis, Prentice Hall, Inc., Englewood Cliffs, N.J., 1974). Serum LH data were analyzed for each time and treatment group by analysis of variance (ANOVA) followed by Bonferroni posthoc test.

[2] = system: LH; test: Plasma LH in ovariectomized female rats (radioimmunoassay); format: in vivo, Sprague Dawley rats
Method: as §1, §2, §3

[3] = system: LH; test: Phase I clinical study: LH suppression; format: in vivo, postmenopausal women
Method: Even more recently, in a Phase I clinical study of postmenopausal women, two different administration regimens of a 2.86 mg E2-CDS buccal delivery tablet were evaluated for safety and effects on hormone levels. The subjects were 12 healthy postmenopausal volunteers, divided into two groups of six. In Group A, women were dosed once daily for 10 days (10 doses); in Group B, women were dosed once every other day for 13 days (7 doses).

[4] = system: FSH; test: Earlier clinical trial, single 2.5 mg buccal E2-CDS: FSH suppression; format: in vivo, postmenopausal women; settings: first 24 hour post-dose, 2.5 mg E2-CDS
Text: A brief evaluation of the results follows:

[5] = Plasma estradiol in orchidectomized male rats (radioimmunoassay); format: in vivo, Sprague Dawley rats; settings: limit of detection 15 pg/mL
Method: Four weeks following orchidectomy, groups of rats were treated with one of the following drug doses via tail vein injection: E2-CDS 0.03, 0.3, and 3 mg/kg. Blood samples were collected by orbital sinus puncture under light ether anesthesia. The samples were stored at 4EC for one hour and centrifuged at 1,000 g for 10 minutes. Plasma was separated and stored at −80EC until assayed. Plasma LH concentrations from individual samples were measured by double antibody radioimmunoassay kits obtained from Amersham Pharmacia Biotech, Rome, Italy. […] The limit of detection was 15 pg/mL.
as §3
The testing described above was repeated using a dose of 0.03 mg/kg administered as a single i.v. injection, and a dose of 0.01 mg/kg with daily i.v. administration for 10 days. E2-CDS stock solution (40%) was diluted in 27% HPβCD solution.

[6] = average 7 degrees of substitution, cited from earlier work
[7] = system: castrated male rats; settings: single intravenous dose of 3 mg/kg; cited from earlier work
[8] = 0.003 mg/kg i.v. once a day for 5 days
[9] = 0.01 mg/kg i.v. once a day for 5 days
[10] = 0.03 mg/kg i.v. once a day for 5 days

CN1C=CCC(C(=O)O[C@H]2CC[C@H]3[C@@H]4CCc5cc(O)ccc5[C@H]4CC[C@]23C)=C1 [E2-CDS, 17β-[(1-methyl-1,4-dihydro-3-pyridinyl)carbonyloxy]estra-1,3,5(10)-trien-3-ol]
effect on lordosis quotient [1, 8]: slightly enhanced
period of the LQ effect [1, 8]: 3 to 18 days
statistical significance of LQ effect [1, 8]: not statistically significant
day till which the LQ increase lasted (not statistically significant after day 11) [1, 9]: 15 days
effect on lordosis quotient LQ [1, 9]: significantly enhanced
period of the LQ effect [1, 9]: day 5 to day 11
effect on lordosis quotient LQ [1, 10]: significantly enhanced
maximal value of lordosis quotient (LQ) [1, 10]: 73
period over which the LQ effect lasted [1, 10]: day 3 to day 18
duration of plasma LH suppression ([2]; 0.003 mg/kg i.v. daily for 5 days): up to 15 days
duration of statistically significant plasma LH suppression ([2]; 0.03 mg/kg i.v. daily for 5 days): up to 18 days
effect on plasma LH levels ([2]; all dosage levels tested: 0.003, 0.01 and 0.03 mg/kg i.v. daily for 5 days): suppressed
post-study LH levels ([3]; 72 hours after the last dose): not different any more from screening/baseline values
time of maximum LH depression ([3]; Group A): 7.3±5.3 hours post-dose
time of maximum LH depression ([3]; Group B): 7.3±2.7 hours post-dose
maximum decrease in LH from baseline ([3]; first 24 hours, 2.86 mg buccal, Group A): 13.8±4.9 mIU/mL
maximum decrease in LH from baseline ([3]; first 24 hours, 2.86 mg buccal, Group B): 12.7±6.8 mIU/mL
decrease in LH levels from baseline ([3]; first 24 hours, 2.86 mg buccal, Groups A and B): 35-40%
extent of maximum FSH suppression [4]: 12.5%
estradiol levels after treatment ([5]; 0.01 mg/kg daily for 10 days i.v.): below the limit of detection
estradiol levels after treatment ([5]; 0.03 mg/kg single dose i.v., repeated study): below the limit of detection
estradiol levels after treatment ([5]; 0.03 mg/kg single i.v., first study): below the limit of detection
estradiol levels after treatment ([5]; 0.3 mg/kg single i.v., first study): below the limit of detection
solubility of E2-CDS (phase solubility data point) ([6]; 20% w/v HPβCD): 6.73 mg/mL
solubility of E2-CDS (phase solubility data point) ([6]; 40% w/v HPβCD): 16.36 mg/mL
solubility of E2-CDS (phase solubility data point) ([6]; 60% w/v HPβCD): 30.19 mg/mL
duration of improved masculine sexual behavior [7]: 28 days
